Experiments:
Assay in all cases: relative viability (nuclei count vs DMSO), 5 days (fraction); higher = more cells survive
[1] = compound: CC1=C(C(=O)N2C=CSC2=N1)CCN3CCC(=C(C4=CC=CC=C4)C5=CC=C(C=C5)F)CC3 + C[C@@H](Oc1cc(-c2cnn(C3CCNCC3)c2)cnc1N)c1c(Cl)ccc(F)c1Cl [Crizotinib] (partner 1 µM)
How it was run: (§1)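 Dosing by pin tool came one day after lung cancer cell lines were seeded in 1536-well plates, using either one drug or a fixed anchor-drug dose plus five library-drug doses (not always all listed) in √10 steps. After 5 days, nuclei were counted on 4× images. Relative viability is treated-well nuclei count divided by vehicle-well nuclei count, and values are medians of duplicate plates.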

[2] = compound: CC1=C(C(=O)N2C=CSC2=N1)CCN3CCC(=C(C4=CC=CC=C4)C5=CC=C(C=C5)F)CC3 + C[C@]1(O)C[C@@H](c2nc(-c3ccc4ccc(-c5ccccc5)nc4c3)c3c(N)nccn32)C1 [Linsitinib] (partner 1 µM)
How it was run: as §1

[3] = compound: CC1=C(C(=O)N2C=CSC2=N1)CCN3CCC(=C(C4=CC=CC=C4)C5=CC=C(C=C5)F)CC3 + Cc1cc(Nc2cc(N3CCN(C)CC3)nc(Sc3ccc(NC(=O)C4CC4)cc3)n2)n[nH]1 [Tozasertib] (partner 0.1 µM)
How it was run: as §1

[4] = compound: CC1=C(C(=O)N2C=CSC2=N1)CCN3CCC(=C(C4=CC=CC=C4)C5=CC=C(C=C5)F)CC3 + COc1cccc2cc(-c3nc([C@H]4CC[C@H](C(=O)O)CC4)n4ncnc(N)c34)[nH]c12 [OSI-027] (partner 0.5 µM)
How it was run: as §1

Cell Line	relative viability ([1]; first compound 0.08 µM)	relative viability ([1]; first compound 0.253 µM)	relative viability ([1]; first compound 0.8 µM)	relative viability ([1]; first compound 2.53 µM)	relative viability ([1]; first compound 8 µM)	relative viability ([2]; first compound 0.08 µM)	relative viability ([2]; first compound 0.253 µM)	relative viability ([2]; first compound 0.8 µM)	relative viability ([2]; first compound 2.53 µM)	relative viability ([2]; first compound 8 µM)	relative viability ([3]; first compound 0.08 µM)	relative viability ([3]; first compound 0.253 µM)	relative viability ([3]; first compound 0.8 µM)	relative viability ([3]; first compound 2.53 µM)	relative viability ([3]; first compound 8 µM)	relative viability ([4]; first compound 0.08 µM)	relative viability ([4]; first compound 0.253 µM)	relative viability ([4]; first compound 0.8 µM)	relative viability ([4]; first compound 2.53 µM)	relative viability ([4]; first compound 8 µM)
NCI-H838	0.583	0.854	0.837	0.925	0.616	1.02	1.02	1.02	1.31	0.809	0.267	0.286	0.27	0.266	0.244	0.445	0.339	0.37	0.454	0.352
NCI-H1793						0.74	0.819	1.09	0.834	0.437	0.354	0.339	0.312	0.362	0.258	0.302	0.3	0.261	0.293	0.186
NCI-H520	0.679	0.608	0.858	0.58	0.476	1.13	0.723	0.902	0.943	0.768	0.514	0.435	0.439	0.464	0.401	0.251	0.247	0.251	0.212	0.233
HCC-44	0.836	0.842	0.927	0.858	0.665	0.689	0.818	0.662	0.686	0.579	0.855	1.33		0.896	0.525	0.69	0.548		0.494	0.491
NCI-H2023	0.69	0.566	0.725	0.649	0.563	0.63	0.598	0.718	0.723	0.582	0.446	0.265	0.393	0.44	0.272	0.4	0.404	0.386	0.39	0.301
NCI-H1975	0.984	0.96	0.93	0.943	0.583	0.984	0.817	0.982	0.908	0.519	0.852	0.63	0.816	0.922	0.37	0.912	0.673	0.679	0.836	0.437
NCI-H2342											0.559	0.492	0.585	0.504	0.431	0.567	0.617	0.636	0.602	0.622
COR-L 105	0.676	0.809	0.641	0.836	0.786	0.892	0.832	1.05	0.96	0.597	0.322	0.346	0.34	0.388	0.345	0.682	0.726	0.695	0.835	0.644
CAL-12T	0.694	0.829	0.657	0.741	0.46	0.451	0.894	0.833	0.676	0.634	0.316	0.304	0.311	0.302	0.255	0.826	0.718	0.603	0.586	0.428

From the supplement of paper PMC10307832
